Columns and labels:
Proteus vulgaris 2 = assay: In vitro antibacterial activity, two-fold agar-plate dilution method; format: cell-based; conditions: HI-agar, incubation at 37°C for 20 hours, inoculum 10^8 viable cells per ml
Procedure: (§1) In vitro antibacterial activity was determined by the two-fold agar-plate dilution method as described below. One loopful of an overnight culture of each test strain in Trypticase-soy broth (10^8 viable cells per ml.) was streaked on heart infusion agar (HI-agar) containing graded concentrations of test compound , and minimal inhibitory concentration (MIC) was expressed in terms of µg/ml after incubation at 37°C for 20 hours.

Proteus mirabilis 18 = assay: as above; format: cell-based; conditions: HI-agar, incubation at 37°C for 20 hours, inoculum 10^8 viable cells per ml
Procedure: as §1

MIC (Proteus vulgaris 2): < 0.025 µg/mL
MIC (Proteus mirabilis 18): < 0.025 µg/mL
Structure (SMILES): Nc1nc(/C(=N/OCC(=O)O)C(=O)NC2C(=O)N3C(C(=O)O)=C(CSc4snc(O)c4C(=O)O)CSC23)ns1 (stereo not drawn) [Test Compound, Sodium 7-[2-(5-amino-1,2,4-thiadiazol-3-yl)-2-carboxymethoxyiminoacetamido]-3-[(4-carboxy-3-hydroxyisothiazol-5-yl)thiomethyl]-3-cephem-4-carboxylate (syn isomer)]
